Where “and” joins values, the source holds several entries; their conditions need not be identical. Identical values can stand only once. Each block holds one molecule with its values, some of them ahead of it.
Tests used:
[1] = Table 1 of CELEBREX Package Insert; cited from earlier work
[2] = Celecoxib AUC from combined published pharmacokinetic data
[3] = Incidence of edema in SYMPHONY claims / ACC registry database; assay type: in vivo, human
Source text: To support this study a database was created which contains: 1) Claims data from SYMPHONY DATABASE® pertaining to anti-hypertensives, Statins, COX-2's, and NSAIDS. The data span the most recent 36 months and 2) registry data from the ACC reporting Blood Pressure (systolic/diastolic), peripheral edema flags (yes, no, missing), Heart rate, LDL, Glucose Level, Ejection fraction, GFR, Height, Weight, BJVII, and the like.
SYMPHONY DATABASE® contains true patient level data—All Data Sources be it RX or JVIX claims is tied back to individual patients which is tracked and then encrypted based on first name, last name, gender, DOB and zip code to give an accurate picture of patient level informatics year over year regardless of insurance changes.
The properties for the SYMPHONY DATABASE® are: 1) Takes CELEBREX® antihypertensive, AH, Statin or NSAID or have OA, RA or some other form of arthritis, 36 months, 2) Time Frame=Jan. 1, 2012-Dec. 31, 2014 (3 years), 3) Number of files=201, 4) Size=561 GB zipped (−2.5 TB), 5) Unique Patients=162 million, 6) Patients on CELEBREX®=4.3 million, 7) Patients that have OA=16.3 million (15.4 million only OA), 8) Patients that have RA=2.3 million (1.4 million only RA).
The properties of the ACC registry are: 1) Have 3+BP readings, 2) Time Frame=Jan. 1, 2012-Dec. 31, 2014 (3 years), 3) Number of files=2, 4) Size=590 MB, 51 MB, 5) Unique Patients=1.58 million, 6) Patients with BP readings=1.58 million, 7) Patients with Edema Flag True=870 K.
The edema rate was then measured in the aforementioned database. The incidence of edema was higher for OA patients than RA, other Arthritis, or Arthritis free patients. […] Overall OA seems to be susceptible to CELEBREX® induced edema. The results confirmed the meta-analysis shown above. […]

clinical = conditions: human, in vivo, oral, 200 mg
[4] = Moore et al., cited from earlier work
[5] = Applicant's meta-analysis of reported edema rates in osteoarthritic populations by celecoxib dose; conditions: 400 mg/day
[6] = no arthritis patients with CELEBREX
[7] = other arthritis patients with CELEBREX

Compound: CC(C)Cc1ccc(C(C)C(=O)O)cc1 (centres unmarked) [ibuprofen]
patients treated that develop edema [1]: 3.5%

Compound: COc1ccc2cc([C@H](C)C(=O)O)ccc2c1 [naproxen]
patients treated that develop edema [1]: 2.1%

Compound: O=C(O)Cc1ccccc1Nc1c(Cl)cccc1Cl [diclofenac]
patients treated that develop edema [1]: 1.0%

AUC Max. ([2]; 100 mg): 3418 ng·h/mL
AUC Med. ([2]; 100 mg): 3395 ng·h/mL
AUC Min. ([2]; 100 mg): 2465 ng·h/mL
AUC Max. ([2]; 200 mg): 6791 ng·h/mL
AUC Min. ([2]; 200 mg): 5972 ng·h/mL
AUC (clinical): 6440 ng·h/mL
edema event rate (upper limit and average) versus 100 or 200 mg/day dose [5]: more than twice as high
Compound: Cc1ccc(-c2cc(C(F)(F)F)nn2-c2ccc(S(N)(=O)=O)cc2)cc1 [celecoxib]
incidence of edema ([3]; Days of Therapy 60-120): (18.1%)
incidence of edema ([3]; Days of Therapy 120-180): (19.3%)
incidence of edema ([3]; Days of Therapy 180-240): (21.6%)
incidence of edema ([3]; Days of Therapy <60): (19.4%)
incidence of edema ([3]; Days of Therapy >240): (26.7%)
cases of edema (%), OA ([3]; OA patients with CELEBREX): (6.0%)
cases of edema, OA ([3]; OA patients with CELEBREX): 254
cases of edema (%), RA ([3]; RA patients with CELEBREX): (3.3%)
cases of edema, RA ([3]; RA patients with CELEBREX): 82
cases of edema (%), No Arthritis [3, 6]: (0.4%)
cases of edema, No Arthritis [3, 6]: 451
cases of edema (%), Other Arthritis [3, 7]: (4.1%)
cases of edema, Other Arthritis [3, 7]: 1702
incidence of edema at any site, usual ([4]; clinical trials of celecoxib): about 3%
incidence of edema in two trials ([4]; two trials): 23% and 38%
patients treated that develop edema [1]: 2.1%

From patent US20190125727A1, “FIXED DOSE COMBINATION FOR PAIN RELIEF WITHOUT EDEMA” (Marina Biotech, Inc., priority 2014, published 2019)
